According to patent US20210317090A1, “AMINO ACID DEPLETION AGENTS AS ANTIPROLIFERATIVE AGENTS” (University of Central Florida Research Foundation, Inc., priority 2018, published 2021):

Tested on: L3.6pl cells
Test: Intracellular polyamine and Ant-44 levels (N-dansylation, HPLC) in L3.6pl cells
Type: cell-based, human
Conditions: for Intracellular Putrescine / Intracellular Spermidine / Intracellular Spermine / Intracellular Total Polyamines: 72 hr
Experimental: One explanation for the enhanced potency was that compound 10 (1666.255) increased polyamine import and, as a result, may have increased intracellular Ant-44 levels. To test this hypothesis, L3.6pl cells were dosed with a fixed concentration of Ant-44 (2 μM) alone and in combination with increasing concentrations of compound 10 (1666.255) to explore how this combination therapy affected intracellular polyamine pools and Ant-44 import.
FIG. 7 is an example according to various embodiments, illustrating both single and combination therapies in L3.6pl cells with Ant-44 and compound 10 (1666.255) after 72 h incubation. Polyamine and Ant-44 levels (expressed as nmoles/mg protein) and relative % viability versus an untreated control were observed after 72 h incubation at 37° C. The untreated control was run in parallel and polyamine levels determined in duplicate and % cell viability in triplicate. Ant-44 was dosed at a fixed concentration of 2 μM and compound 10 (1666.255) at increasing concentrations. Cell viability tracked well with total intracellular polyamine levels (sum of putrescine, spermidine and spermine).
It was concluded that compound 10 was neither acting as a PTI nor as a polyamine import agonist. How then could it lead to intracellular polyamine depletion? […] To test this hypothesis, L3.6pl cells were dosed with increasing concentrations of compound 10 (1666.255) without Ant44. If compound 10 (1666.255) was acting on polyamine pools, one should see a reduction in total polyamine levels as well as decreased cell viability in a dose dependent manner upon increasing levels of 10. Therefore, the toxicity of compound 10 and intracellular polyamine levels after 72 h exposure to 10 were measured (FIG. 8).
FIG. 8 is an example according to various embodiments, illustrating intracellular polyamine levels (expressed as nmoles polyamine/mg protein) in L3.6pl cells dosed with increasing concentrations of compound 10 (1666.255) after cells were incubated for 72 h at 37° C. The untreated control was run in parallel and polyamine levels determined in duplicate via N-dansylation and HPLC. The data was averaged and reported as nmol polyamine (PA)/mg protein.
This example illustrates aspects according to various embodiments pertaining to a 72 h experiment with Compound 10 in L3.6pl cells. Ten milliliters of a cell suspension containing L3.6pl human pancreatic cancer cells (50,000 cells/mL) and aminoguanidine (1 mM) were placed in treated plastic Petri dishes (d=9 cm) and incubated overnight at 37° C. After 24 h, the cells were dosed with compound 10 at 2 μM, 5 μM, or 7 μM. (Note: Stock solutions of 10 at 2, 5, and 7 mM were dissolved in phosphate buffered saline (PBS) and were filtered through a 0.2 μm filter prior to use. The experiments were maintained with a total volume of 10.01 mL where 10 mL of the cell suspension was placed in a plastic dish and each compound or the equivalent PBS volume was added to make up the total volume 10.01 mL for each dish. For example, for the control experiment PBS (10 μL) was added to make up the total volume (10 mL+10 μL=10.01 mL). After 72 h incubation, the cells were collected first by pipetting off the supernatant containing floating dead cells from the culture dish as well as media and placing them into 15 mL tubes. The supernatant containing floating cells was centrifuged (4 min at 1,000 rpm). The cell-free supernatant (supernatant #1) was collected into a new 15 mL tube and quantified (˜8.6 mL) and was then stored frozen and was later quantified by LCMS to investigate the media composition of particular polyamine and amino acid analytes. The attached cells on the dish were washed with PBS (5 mL). The PBS wash was removed by suction and additional PBS (2 mL) was added and again suctioned off to provide twice-washed cells still adhered to the dish. Trypsin (2 mL) was then added to each dish and incubated (3-5 min) until all the cells were detached. Fresh media (8 mL) was added to quench the trypsin. […]

In the case of `CC(C)CCN1CCN(C(CNCc2ccccc2)CC2CCCCC2)CC1CC(C)C.Cl.Cl.Cl` (stereo not shown) [Compound 10, Benzyl-{3-cyclohexyl-2-[3-isobutyl-4-(3-methyl-butyl)-piperazin-1-yl]-propyl}-amine trihydrochloride salt], the “Intracellular Putrescine” value (2 μM) is reported as 6.2 ± 0.7 nmol polyamine/mg protein, the “Intracellular Spermidine” value (2 μM) is reported as 27.1 ± 2.4 nmol polyamine/mg protein and the “Intracellular Spermine” value (2 μM) is reported as 16.1 ± 0.0 nmol polyamine/mg protein. The “Intracellular Total Polyamines” value (2 μM) was 49.5 ± 3.1 nmol polyamine/mg protein, the “Intracellular Putrescine” value (5 μM) was 6.0 ± 0.9 nmol polyamine/mg protein and the “Intracellular Spermidine” value (5 μM) was 17.6 ± 1.8 nmol polyamine/mg protein. For the same molecule, the “Intracellular Spermine” value (5 μM) was 14.9 ± 1.1 nmol polyamine/mg protein, the “Intracellular Total Polyamines” value (5 μM) was 38.5 ± 3.4 nmol polyamine/mg protein and the “Intracellular Putrescine” value (7 μM) was 5.9 ± 0.3 nmol polyamine/mg protein. The “Intracellular Spermidine” value (7 μM) was 15.6 ± 0.1 nmol polyamine/mg protein, the “Intracellular Spermine” value (7 μM) was 12.7 ± 0.6 nmol polyamine/mg protein and the “Intracellular Total Polyamines” value (7 μM) was 34.2 ± 0.9 nmol polyamine/mg protein. The “intracellular level of Ant-44” value (Ant-44 2 μM with compound 10 at 1 μM, 72 h) was 2.08 nmol Ant44/mg protein.
